Experimental data published in patent publication US12251444B2, “Compositions and methods for delivering an agent to a wound” (priority 2009, dated 2025).

Assays:
Pseudomonas aeruginosa = test: Turbidity/growth assay of sponge elution samples against Pseudomonas aeruginosa; format: cell-based; conditions: eluate of amikacin-loaded 61/71 DDA chitosan sponge
Protocol: To determine whether agents eluted from the sponges could be used to inhibit bacterial growth, zone of inhibition (ZOI) studies were carried out (FIGS. 3A-3D). Chitosan sponges loaded with a single antibiotic or combinations of antibiotics, as above, were analyzed for their ability to inhibit bacterial growth. For the assays to determine inhibition of bacterial growth, the bacterial strains Pseudomonas aeruginosa and Staphylococcus aureus were used. Results showing the inhibition of Pseudomonas aeruginosa and Staphylococcus aureus are shown at Tables 2 and 3, respectively.
Drug activity of the aliquots was tested using a turbidity assay. Two different strains of bacteria were used in this study. Vancomycin samples were tested against Staphylococcus aureus and amikacin samples were tested against both Staphylococcus aureus and Pseudomonas aeruginosa. 200 μl of each aliquot was added to 1.8 ml of Mueller-Hinton II broth combined with 20 μl of S. aureus inoculum. Amikacin samples (200 μl) were also added to 1.75 ml of trypticase soy broth (TSB) and 50 μl of P. aeruginosa inoculum. Samples were incubated for 24 hours at 37 C. Absorbance measurements were recorded after incubation at a wavelength of 530 nm (A530).
Drug activity of the aliquots was tested using a turbidity assay. Samples were tested against Pseudomonas aeruginosa. […] Absorbance measurements at 530 nm on a spectrophotometer (BioTek).

[1] = Antibiotic elution from sterilized chitosan sponges in PBS (TDx); format: physicochemical; conditions: for effect of a co-loaded antibiotic on release from chitosan sponge: sponges hydrated with 5 mg/ml single or combined antibiotics, 20 ml PBS
Protocol: In a preferred approach adopted for use in the goat wound treatment model described in Example 2, 2.5 grams of chitosan was dissolved in 247.5 ml of 1 (v/v) % blended acid solvent. The mixture contained 75%/25% lactic to acetic acid. This mixture was stirred for 4-6 hours at maximum allowable speed on a stir plate. The chitosan solution was filtered to remove undissolved chitosan. 25 ml of chitosan solution was pipetted into small aluminum weigh dishes ([…]). Each dish was frozen at […] freezer for 1 hour. The frozen samples were then placed into a freeze-dryer and lyophilize for 48 hours. Sponge samples were neutralized in 0.175 M NaOH— solution for ˜30-40 seconds. The sponges were rinsed repeatedly in containers filled with distilled water and pH changes were monitored until the rinsing water was neutral in pH. The re-hydrated sponges were then incubated at −80 C freezer for 1 hour and re-lyophilized for 24-48 hours. The sponges were then sterilized using low-dose gamma irradiation at Wright Medical (25-32 kGy).
Sponges were subjected to elution tests by submerging hydrated sponges into 20 ml of 1× Phosphate Buffered Saline (PBS), kept in a 37° C. incubator for the duration of the study. […] One ml aliquots were taken at 1, 3, 6, 24, 48, and 72 hours. Aliquots were tested for antibiotic concentration using a fluorescence polarization immunoassay technique (TDx, Abbott Labs, Abbott Park, IL).

[2] = Amikacin and vancomycin elution from sterilized chitosan films; format: physicochemical; conditions: films soaked in 5 mg/ml antibiotic 2 minutes, 50 ml sterile saline, refreshed
Protocol: Agent elution from chitosan films was also analyzed (FIG. 1C). Sterilized chitosan films were loaded with amikacin and vancomycin. […] The elution was done in 50 ml of sterile saline solution and completely refreshed at each time point. The elution was carried out for 3 days. The values shown in FIG. 1C are expressed in μg/ml.
Elution data from chitosan films is provided at Table 4. […] The elution was done in 50 ml of sterile saline solution and completely refreshed at each time point. The elution was carried out for 3 days. The values shown on the graph are in μg/ml.
In one approach, samples were submerged into 15 ml amikacin solution (5 mg/ml) and allowed to hydrate for 2 minutes. Samples were then subjected to elution tests by submerging the films in 50 ml of 1× Phosphate Buffered Saline (PBS) and agitated in a 37 C incubator for the duration of the study. One ml aliquots were removed at 1, 3, 6, 24, 48, and 72 hours. Aliquots were tested for antibiotic concentration using a fluorescence polarization immunoassay technique (TDxFLx, Abbott Labs, Abbott Park, IL).

in vivo = conditions: goat
[3] = Antibiotic elution from sponge fragments retrieved from goats; format: physicochemical, goat
Description: Sponge fragments remained in 8 of the 10 goats treated with chitosan sponges.

[4] = tested on: S. aureus (Cowan I strain); test: Turbidity assay of film eluates against S. aureus; format: cell-based, Staphylococcus aureus; conditions: 48 and 72 hr eluate samples from chitosan films
Protocol: In other studies, antibiotic activity against S. aureus (Cowan I strain) was determined by utilizing the remaining antibiotic elution samples, in triplicate, in a turbidity assay. In this turbidity study, solution clarity after sufficient bacterial incubation with antibiotic eluates indicated bacterial inhibition due to antibiotic activity.
Blanks containing neither S aureus nor eluate samples, positive controls containing S aureus without antibiotic eluates, and negative controls containing both S aureus and high concentration antibiotic standards were mixed and incubated at 37° C. along with the eluate samples. After 24 hours of incubation, the tubes were vortexed and the absorbance at 530 nm of each inoculum solution was recorded using a spectrophotometer.

[5] = 5 mg/ml solution (sponge loading)

| Structure (SMILES) | effect of a co-loaded antibiotic on release from chitosan sponge [1] | elution from sterilized chitosan films ([2]; 1 hour) [µg/mL] | elution from sterilized chitosan films ([2]; 3 hours) [µg/mL] | elution from sterilized chitosan films ([2]; 6 hours) [µg/mL] | elution from sterilized chitosan films ([2]; 24 hours) [µg/mL] | elution from sterilized chitosan films ([2]; 48 hours) [µg/mL] | elution from sterilized chitosan films ([2]; 72 hours) [µg/mL] | inhibition of S. aureus growth by film eluates [4] | other results |
| --- | --- | --- | --- | --- | --- | --- | --- | --- | --- |
| NCC[C@H](O)C(=O)N[C@@H]1C[C@H](N)[C@@H](O[C@H]2O[C@H](CN)[C@@H](O)[C@H](O)[C@H]2O)[C@H](O)[C@H]1O[C@H]1O[C@H](CO)[C@@H](O)[C@H](N)[C@H]1O [amikacin] | vancomycin nor daptomycin affected the release of amikacin | 50.63 ± 4.49 | 2.15 ± 1.13 | 3.17 ± 1.14 | 3.93 ± 0.57 | 4.7 ± 2.49 | 0.6 ± 0.48 |  | Bacterial growth inhibition of P. aeruginosa (Pseudomonas aeruginosa; after 72 hours): 93.1%; Bacterial growth inhibition of P. aeruginosa (Pseudomonas aeruginosa; after one hour): 98.7%; concentration at 6 h (in vivo): 526 ± 478 ng/mL; concentration at 12 h (in vivo): 200 ng/mL; concentration at 24 h (in vivo): 200 ng/mL; concentration at 36 h (in vivo): 200 ng/mL; concentration at 42 h (in vivo): 200 ng/mL; 12 hr TDx reading, antibiotic elution from remaining sponge fragments, Mean ([3]; goat, 12 h): 0.60 µg/mL/g |
| CCCCCCCCCC(=O)N[C@@H](Cc1c[nH]c2ccccc12)C(=O)N[C@H](CC(N)=O)C(=O)N[C@@H](CC(=O)O)C(=O)N[C@@H]1C(=O)NCC(=O)N[C@@H](CCCN)C(=O)N[C@@H](CC(=O)O)C(=O)N[C@H](C)C(=O)N[C@@H](CC(=O)O)C(=O)NCC(=O)N[C@H](CO)C(=O)N[C@@H]([C@H](C)CC(=O)O)C(=O)N[C@@H](CC(=O)c2ccccc2N)C(=O)O[C@@H]1C [daptomycin] | Amikacin did not affect the release of daptomycin |  |  |  |  |  |  | active in inhibiting the growth of S. aureus | release from chitosan sponge compared with the other tested antibiotics ([1]; 72 hour time point, sponges hydrated with 5 mg/ml, one antibiotic per sponge): significantly less than the other two tested antibiotics |
| CN[C@H](CC(C)C)C(=O)N[C@H]1C(=O)N[C@@H](CC(N)=O)C(=O)N[C@H]2C(=O)N[C@H]3C(=O)N[C@H](C(=O)N[C@H](C(=O)O)c4cc(O)cc(O)c4-c4cc3ccc4O)[C@H](O)c3ccc(c(Cl)c3)Oc3cc2cc(c3O[C@@H]2O[C@H](CO)[C@@H](O)[C@H](O)[C@H]2O[C@H]2C[C@](C)(N)[C@H](O)[C@H](C)O2)Oc2ccc(cc2Cl)[C@H]1O [vancomycin] | amikacin did not affect the release of vancomycin | 83.45 ± 17.25 | 19.35 ± 7.98 | 0.58 ± 0.88 | 2.53 ± 0.66 | 9.72 ± 1.92 | 6.13 ± 0.39 | active in inhibiting the growth of S. aureus | concentration at 6 h (in vivo; [5]): 1630 ± 646 ng/mL; concentration at 12 h (in vivo; [5]): 703 ± 348 ng/mL; concentration at 24 h (in vivo; [5]): 845 ± 539 ng/mL; concentration at 36 h (in vivo; [5]): 740 ± 477 ng/mL; concentration at 42 h (in vivo; [5]): 275 ± 70 ng/mL; 12 hr TDx reading, antibiotic elution from remaining sponge fragments, Mean ([3]; mean of 4 goats, fragments retrieved after 42 hours in vivo, 20 ml sterile saline, 37° C., 12 hours): 3.78 µg/mL/g |
